One may read the TGI as the concentration at which net growth stops. Low readings indicate more potent growth arrest, high ones less potent growth arrest.

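Dose response: 5 concentrations. Exposure: 48 h. Format: 96-well plates. Endpoint: linear interpolation; highest concentration if not reached. TGI denotes the concentration required for complete inhibition of growth.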 Bounds are passed on as bounds.

What all share (test): DTP human tumour cell line panel, 48 h
Assay [1] concerns HCT-116 colon.
Assay [2] concerns NCI-H23 lung.
In assay [3] the test system is SF-268 CNS.
Assay [4] concerns SF-539 CNS.
Assay [5] concerns SK-OV-3 ovarian.
The test system of assay [6] is SNB-75 CNS.
For assay [7], the system named is CAKI-1 renal.
The subject of assay [8] is MCF7 breast.
For assay [9], the system named is MDA-MB-231 breast.
Assay [10] concerns DU-145 prostate.

With `Cc1ccc(S(=O)(=O)C(C#N)c2nc3ccccc3nc2-n2cccn2)cc1` (centres undefined), the TGI in [1], in assay [2], in assay [3], in assay [4], in assay [5] and in [6] was more than 100 µM throughout.

On to `C/C(=N\N=C(N)N)c1c(C(=O)OCCCCCCOC(=O)c2nc3sccn3c2/C(C)=N/N=C(N)N)nc2sccn12`, for which the TGI in assay [7], in [1], in assay [8], in assay [9], in assay [2] and in assay [3] was more than 100 µM throughout. This compound gave a TGI in assay [6] of more than 100 µM.

In the case of `COC(=O)Cc1c(C2=Nc3ccccc3C2(O)CC(=O)OC)[nH]c2ccccc12` (centres undefined), the TGI in assay [7] was 71 µM; in assay [10], more than 100 µM; in [1], more than 100 µM; in assay [9], more than 100 µM; in assay [2] it was more than 100 µM; in assay [3], more than 100 µM. Further, the results for the TGI in [4], in assay [5] and in [6] were 85.5 µM, more than 100 µM and more than 100 µM, respectively.

Turning to `CCOC(=O)C1C/C(C)=C(/C)SCCCS1` (centres undefined), the TGI in assay [10], in assay [1], in assay [8], in [9], in assay [2] and in assay [3] was more than 100 µM in each case. The TGI in assay [4] and in [5] was more than 100 µM throughout.

As to `Cc1ccc2ccccc2c1CC1S(=O)(=O)OCCOS1(=O)=O`, the TGI in assay [7] was 24.4 µM; in assay [10], 24.1 µM; in assay [1], 26 µM; in [8], 23.1 µM; in assay [9], 29.1 µM; in [2], 41 µM.

Take `O=S1(=O)NNC(=NCc2ccc(F)cc2)c2ccccc21`: the TGI in assay [7], in assay [10], in [1], in assay [8], in [9] and in assay [2] was more than 100 µM each time. Further, the TGI in assay [3], in assay [4] and in assay [5] was more than 100 µM in each case.

As to `O=C1CCSSCCC(=O)Nc2ccccc2N1`, the TGI in [7], in assay [10], in [1], in assay [9], in assay [2] and in assay [3] was more than 100 µM throughout. Besides, the TGI in assay [4] and in assay [5] was more than 100 µM in each case.

On to `N#Cc1c(N)c(-c2ccc(Cl)cc2)c(F)c2ccccc12`, for which the concentration for total growth inhibition (TGI) in assay [7], in [1], in assay [8], in [9], in assay [2] and in [3] was more than 100 µM in each case. Further, the TGI in assay [4], in assay [5] and in assay [6] was more than 100 µM throughout.

As for `O=C(Cn1c2ccc(Br)cc2c2nc3ccccc3nc21)NC1CCCCC1`, the TGI in assay [7], in assay [10], in assay [1], in assay [9], in assay [2] and in assay [3] was more than 100 µM each time. Besides, the TGI in assay [5] and in assay [6] was more than 100 µM throughout.

In the case of `CNc1ccc2nc(-c3ccc(OC(=O)N(C)C)cc3)cn2c1`, the TGI in [7] is 44.7 µM; in assay [10] it was more than 100 µM; in assay [1], 33.5 µM; in [8] it was 43.6 µM; in assay [9], 31.5 µM; in [2], 40.4 µM. Besides, the TGI in assay [3] was 30 µM; in assay [5] it was 33 µM.

`CC(C)(CN1CCCCC1)C(=O)CC(SCCS(=O)(=O)O)c1ccc(Br)cc1` (centres undefined): the TGI is 7.2 µM in assay [7]; 3.04 µM in assay [1]; 5.9 µM in assay [2]; 5.48 µM in [3]; 3.96 µM in assay [4]; 6.16 µM in [6].

On to `CC(=O)N[C@@H](Cc1ccc(O)cn1)C(=O)NCc1ccc2c(c1)OCO2`, for which the TGI in [7], in assay [10], in assay [1], in [8], in [2] and in assay [3] was more than 100 µM throughout. Moreover, the TGI in assay [4] and in assay [5] was more than 100 µM each time.

Consider `CCOC(=O)/C=C1\Nc2ccccc2C12CCc1c([nH]c3ccccc13)C2C(=O)OCC` (centres undefined), for which the TGI in assay [7], in assay [10], in assay [1], in assay [8], in assay [9] and in assay [2] was more than 100 µM throughout. Moreover, the TGI in assay [3], in assay [4] and in assay [5] was more than 100 µM each time.

On to `CC(=O)O[C@]12CCCCCCC1C1(O)C(O)CCC[C@H]12` (some centres undefined), for which the TGI in assay [1], in assay [2], in assay [3], in assay [5] and in [6] was more than 100 µM each time.

Take `COc1cc(C(=O)Nc2nnc(S(N)(=O)=O)s2)cc(OC)c1OC`: the TGI in [7], in [10], in assay [1], in assay [8], in assay [9] and in [2] was more than 100 µM in each case. The TGI in [3], in assay [4] and in [5] was more than 100 µM each time.

Consider `O=C1C/C(=C\O)C(=O)c2ccccc2N1`, for which the TGI in [7], in [10], in [1], in assay [8], in assay [9] and in assay [2] was more than 100 µM throughout. Also, the TGI in assay [3], in [4] and in assay [5] was more than 100 µM in each case.

(Values after PubChem BioAssay (NCI).)
